# Structures can show the parent of a compound that is named as a salt.
# Tests used:
# HiBiT-BRM = target: T1, HiBiT-BRM (Homo sapiens, UniProt P51531); test: HiBiT-BRM cell-based degradation assay (Nano-Glo HiBiT Lytic Detection); conditions: HeLa cells expressing HiBiT-BRM, 24 h; for DC50: read-out: BRM HiBit Degradation IC50
# T1 construct: expressed in transfected cells
# How it was run: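 HeLa cells stably expressing HiBiT-tagged BRM were treated for 24 h, then lysed with LgBiT-containing Nano-Glo reagent and luminescence read. % degradation scaled between DMSO (high control) and 2 μM reference BRM/BRG1 degrader (low control).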
# HiBit-BRG1 = target: T2, HiBit-BRG1 (Homo sapiens, UniProt P51532); test: HiBit-BRG1 cell-based degradation assay (Nano-Glo HiBiT Lytic Detection); conditions: HeLa cells expressing HiBit-BRG1 and LgBit, 24 h; for DC50: read-out: BRG1 HiBit Degradation IC50; for Dmax: read-out: BRG1 HiBit Degradation Maximum (%)
# T2 construct: expressed in transfected cells
# How it was run: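 Luminescence from reconstituted NanoBiT luciferase after lytic detection served as read-out of remaining HiBit-BRG1 in stable HeLa cells, which also express LgBit. Cells were seeded at 5000 per well and incubated with compound for 24 h. DMSO and a 2 μM known degrader defined the control range.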
# T2 sequence (P51532 whole entry): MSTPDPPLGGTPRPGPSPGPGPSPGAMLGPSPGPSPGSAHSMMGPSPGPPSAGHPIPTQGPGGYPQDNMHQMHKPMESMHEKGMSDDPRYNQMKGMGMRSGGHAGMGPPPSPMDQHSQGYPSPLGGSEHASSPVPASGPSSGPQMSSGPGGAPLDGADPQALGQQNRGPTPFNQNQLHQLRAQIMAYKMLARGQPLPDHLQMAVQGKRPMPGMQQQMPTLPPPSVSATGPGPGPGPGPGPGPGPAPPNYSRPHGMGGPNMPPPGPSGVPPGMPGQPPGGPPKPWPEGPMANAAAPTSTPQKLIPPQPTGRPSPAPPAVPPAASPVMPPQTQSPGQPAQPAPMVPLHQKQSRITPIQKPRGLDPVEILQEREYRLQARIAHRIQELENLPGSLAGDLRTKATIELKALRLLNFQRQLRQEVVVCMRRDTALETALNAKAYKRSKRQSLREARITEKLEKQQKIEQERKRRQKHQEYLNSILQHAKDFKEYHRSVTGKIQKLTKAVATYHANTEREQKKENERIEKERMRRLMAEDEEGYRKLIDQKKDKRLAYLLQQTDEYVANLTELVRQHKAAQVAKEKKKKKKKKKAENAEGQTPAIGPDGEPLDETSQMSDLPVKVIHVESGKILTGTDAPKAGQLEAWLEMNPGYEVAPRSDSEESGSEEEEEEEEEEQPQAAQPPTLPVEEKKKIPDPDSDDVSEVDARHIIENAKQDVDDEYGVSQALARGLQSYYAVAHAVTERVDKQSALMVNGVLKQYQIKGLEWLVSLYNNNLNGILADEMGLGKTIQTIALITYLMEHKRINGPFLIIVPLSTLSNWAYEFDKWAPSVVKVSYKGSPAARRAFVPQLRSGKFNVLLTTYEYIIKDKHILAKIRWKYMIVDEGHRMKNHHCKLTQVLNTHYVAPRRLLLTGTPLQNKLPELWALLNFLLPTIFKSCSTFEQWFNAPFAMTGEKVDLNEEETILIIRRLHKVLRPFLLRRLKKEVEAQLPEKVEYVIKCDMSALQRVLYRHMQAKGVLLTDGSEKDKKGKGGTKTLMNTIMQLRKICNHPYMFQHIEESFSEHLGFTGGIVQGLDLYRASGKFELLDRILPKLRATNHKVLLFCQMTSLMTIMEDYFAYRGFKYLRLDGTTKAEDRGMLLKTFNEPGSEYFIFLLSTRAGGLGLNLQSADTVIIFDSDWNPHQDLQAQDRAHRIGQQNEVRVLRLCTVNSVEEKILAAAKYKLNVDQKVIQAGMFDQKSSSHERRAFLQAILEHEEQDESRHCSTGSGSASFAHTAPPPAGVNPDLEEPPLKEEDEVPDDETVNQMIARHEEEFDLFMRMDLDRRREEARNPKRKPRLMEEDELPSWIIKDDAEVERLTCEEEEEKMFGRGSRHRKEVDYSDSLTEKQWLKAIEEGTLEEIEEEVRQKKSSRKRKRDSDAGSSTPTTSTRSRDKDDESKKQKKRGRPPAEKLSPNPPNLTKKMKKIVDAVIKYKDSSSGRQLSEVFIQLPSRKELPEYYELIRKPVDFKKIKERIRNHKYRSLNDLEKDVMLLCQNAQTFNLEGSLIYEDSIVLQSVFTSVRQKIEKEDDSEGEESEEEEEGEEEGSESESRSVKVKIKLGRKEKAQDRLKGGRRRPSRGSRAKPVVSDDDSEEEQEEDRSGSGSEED
# T1 sequence (P51531 whole entry): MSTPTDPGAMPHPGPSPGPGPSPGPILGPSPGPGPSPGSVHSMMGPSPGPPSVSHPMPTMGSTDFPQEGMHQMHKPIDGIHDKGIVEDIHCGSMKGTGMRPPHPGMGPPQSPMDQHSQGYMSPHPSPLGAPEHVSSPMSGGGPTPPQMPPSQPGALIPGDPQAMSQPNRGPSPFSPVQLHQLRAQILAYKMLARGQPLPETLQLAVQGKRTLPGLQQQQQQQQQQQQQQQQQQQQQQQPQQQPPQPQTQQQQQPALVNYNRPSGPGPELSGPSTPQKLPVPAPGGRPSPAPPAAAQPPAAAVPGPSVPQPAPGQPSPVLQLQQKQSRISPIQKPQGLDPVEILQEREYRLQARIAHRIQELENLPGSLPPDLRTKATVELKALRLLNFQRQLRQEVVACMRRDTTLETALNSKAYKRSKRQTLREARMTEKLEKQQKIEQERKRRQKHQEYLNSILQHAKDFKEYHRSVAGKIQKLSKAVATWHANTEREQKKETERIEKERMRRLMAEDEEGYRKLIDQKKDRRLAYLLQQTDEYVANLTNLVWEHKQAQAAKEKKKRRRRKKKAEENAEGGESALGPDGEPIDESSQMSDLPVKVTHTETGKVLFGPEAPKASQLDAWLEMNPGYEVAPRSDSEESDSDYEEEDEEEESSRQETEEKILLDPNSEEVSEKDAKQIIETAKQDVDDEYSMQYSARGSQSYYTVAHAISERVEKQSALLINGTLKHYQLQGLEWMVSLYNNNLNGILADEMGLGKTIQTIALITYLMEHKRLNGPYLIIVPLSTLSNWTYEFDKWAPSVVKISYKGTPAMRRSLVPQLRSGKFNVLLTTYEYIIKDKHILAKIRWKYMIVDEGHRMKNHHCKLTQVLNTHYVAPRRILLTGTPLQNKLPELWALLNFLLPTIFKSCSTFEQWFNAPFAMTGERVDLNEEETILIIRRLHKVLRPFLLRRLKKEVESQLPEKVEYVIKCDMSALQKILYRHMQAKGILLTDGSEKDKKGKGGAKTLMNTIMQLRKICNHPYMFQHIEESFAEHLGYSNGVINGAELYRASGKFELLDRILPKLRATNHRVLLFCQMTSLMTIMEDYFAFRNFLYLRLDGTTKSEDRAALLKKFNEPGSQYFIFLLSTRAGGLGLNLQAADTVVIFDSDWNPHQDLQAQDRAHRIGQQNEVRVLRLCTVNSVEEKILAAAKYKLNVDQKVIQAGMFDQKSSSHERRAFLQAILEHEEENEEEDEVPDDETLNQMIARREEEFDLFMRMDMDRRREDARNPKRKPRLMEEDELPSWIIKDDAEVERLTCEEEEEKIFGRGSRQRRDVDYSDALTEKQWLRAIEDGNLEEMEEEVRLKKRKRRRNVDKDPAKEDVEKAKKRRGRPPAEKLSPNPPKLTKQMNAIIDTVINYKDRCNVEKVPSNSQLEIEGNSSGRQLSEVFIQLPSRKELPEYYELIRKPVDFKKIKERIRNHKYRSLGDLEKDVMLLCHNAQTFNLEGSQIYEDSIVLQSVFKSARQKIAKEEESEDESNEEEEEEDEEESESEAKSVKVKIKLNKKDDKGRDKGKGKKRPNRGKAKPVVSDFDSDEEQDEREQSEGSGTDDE
SMILES,DC50 (HiBiT-BRM) [nM],DC50 (HiBit-BRG1) [nM],Dmax (HiBit-BRG1) [%],BRM HiBit Degradation Maximum (%) (HiBiT-BRM)
"Nc1nnc(-c2ccccc2O)cc1OCCc1ccc(CNCCN2CCN(c3cccc4c3C(=O)N(C3CCC(=O)NC3=O)C4=O)CC2=O)cc1 (stereo not drawn) [Compound 153, 4-(4-(2-((4-(2-((3-amino-6-(2-hydroxyphenyl)pyridazin-4-yl)oxy)ethyl)benzyl)amino)ethyl)-3-oxopiperazin-1-yl)-2-(2,6-dioxopiperidin-3-yl)isoindoline-1,3-dione]",> 1000,> 1000,< 50,C (“C” indicates maximum degradation <50%)
"Nc1nnc(-c2ccccc2O)cc1OCCc1ccc(CNC(=O)CCCCNc2ccc3c(c2)C(=O)N(C2CCC(=O)NC2=O)C3=O)cc1 (stereo not drawn) [Compound 154, N-(4-(2-((3-amino-6-(2-hydroxyphenyl)pyridazin-4-yl)oxy)ethyl)benzyl)-5-((2-(2,6-dioxopiperidin-3-yl)-1,3-dioxoisoindolin-5-yl)amino)pentanamide]",> 1000,> 1000,< 50,C (“C” indicates maximum degradation <50%)
"Nc1nnc(-c2ccccc2O)cc1OCCc1ccc(CNC(=O)CCCCNc2cccc3c2C(=O)N(C2CCC(=O)NC2=O)C3)cc1 (stereo not drawn) [Compound 155, N-(4-(2-((3-amino-6-(2-hydroxyphenyl)pyridazin-4-yl)oxy)ethyl)benzyl)-5-((2-(2,6-dioxopiperidin-3-yl)-3-oxoisoindolin-4-yl)amino)pentanamide]",> 100,> 1000,< 50,A (“A” indicates maximum degradation ≥75%)
"CN(CCCCCNc1cccc2c1C(=O)N(C1CCC(=O)NC1=O)C2=O)Cc1ccc(CCOc2cc(-c3ccccc3O)nnc2N)cc1 (stereo not drawn) [Compound 156, 4-((5-((4-(2-((3-amino-6-(2-hydroxyphenyl)pyridazin-4-yl)oxy)ethyl)benzyl)(methyl)amino)pentyl)amino)-2-(2,6-dioxopiperidin-3-yl)isoindoline-1,3-dione formate]",> 10,< 10,> 50,B (“B” indicates maximum degradation ≥50%)
"Nc1nnc(-c2ccccc2O)cc1OCCc1ccc(CNCCN2CC3CC2CN3c2cccc3c2C(=O)N(C2CCC(=O)NC2=O)C3=O)cc1 (stereo not drawn) [Compound 158, 4-(5-(2-((4-(2-((3-amino-6-(2-hydroxyphenyl)pyridazin-4-yl)oxy)ethyl)benzyl)amino)ethyl)-2,5-diazabicyclo[2.2.1]heptan-2-yl)-2-(2,6-dioxopiperidin-3-yl)isoindoline-1,3-dione]",> 100,> 100,> 50,B (“B” indicates maximum degradation ≥50%)
"Cc1ncsc1-c1ccc(CNC(=O)[C@@H]2C[C@@H](O)CN2C(=O)[C@@H](NC(=O)CCCCCCCCCCCCCC(=O)N(C)Cc2ccc(CCOc3cc(-c4ccccc4O)nnc3N)cc2)C(C)(C)C)cc1 [Compound 159, N1-(4-(2-((3-amino-6-(2-hydroxyphenyl)pyridazin-4-yl)oxy)ethyl)benzyl)-N15-((S)-1-((2S,4R)-4-hydroxy-2-((4-(4-methylthiazol-5-yl)benzyl)carbamoyl)pyrrolidin-1-yl)-3,3-dimethyl-1-oxobutan-2-yl)-N1-methylpentadecanediamide]",> 10,> 1000,< 50,A (“A” indicates maximum degradation ≥75%)
"CN(CCc1ccc(CNCCN2CCN(c3cccc4c3C(=O)N(C3CCC(=O)NC3=O)C4=O)CC2)cc1)c1cc(-c2ccccc2O)nnc1N (stereo not drawn) [Compound 160, 4-(4-(2-((4-(2-((3-amino-6-(2-hydroxyphenyl)pyridazin-4-yl)(methyl)amino)ethyl)benzyl)amino)ethyl)piperazin-1-yl)-2-(2,6-dioxopiperidin-3-yl)isoindoline-1,3-dione diformate]",> 1000,> 1000,> 50,B (“B” indicates maximum degradation ≥50%)
"Nc1nnc(-c2ccccc2O)cc1NCCc1ccc(CNCCN2CCN(c3cccc4c3C(=O)N(C3CCC(=O)NC3=O)C4=O)CC2)cc1 (stereo not drawn) [Compound 166, 4-(4-(2-((4-(2-((3-amino-6-(2-hydroxyphenyl)pyridazin-4-yl)amino)ethyl)benzyl)amino)ethyl)piperazin-1-yl)-2-(2,6-dioxopiperidin-3-yl)isoindoline-1,3-dione]",> 1000,> 1000,< 50,C (“C” indicates maximum degradation <50%)
"Cc1ncsc1-c1ccc(CNC(=O)[C@@H]2C[C@@H](O)CN2C(=O)[C@@H](NC(=O)CCCCCCCCCCCCCC(=O)NCc2ccc(CCOc3cc(-c4ccccc4O)nnc3N)cc2)C(C)C)cc1 [Compound 169, N1-(4-(2-((3-amino-6-(2-hydroxyphenyl)pyridazin-4-yl)oxy)ethyl)benzyl)-N15-((S)-1-((2S,4R)-4-hydroxy-2-((4-(4-methylthiazol-5-yl)benzyl)carbamoyl)pyrrolidin-1-yl)-3-methyl-1-oxobutan-2-yl)pentadecanediamide]",> 100,> 1000,< 50,B (“B” indicates maximum degradation ≥50%)
"Cc1ncsc1-c1ccc(CNC(=O)[C@@H]2C[C@@H](O)CN2C(=O)[C@@H](NC(=O)CCCCCCCCCNC(=O)c2ccc(CCOc3cc(-c4ccccc4O)nnc3N)cc2)C(C)C)cc1 [Compound 170, (2S,4R)-1-((10-(4-(2-((3-amino-6-(2-hydroxyphenyl)pyridazin-4-yl)oxy)ethyl)benzamido)decanoyl)-L-valyl)-4-hydroxy-N-(4-(4-methylthiazol-5-yl)benzyl)pyrrolidine-2-carboxamide]",> 1000,> 1000,< 50,C (“C” indicates maximum degradation <50%)

# Now from value to compound, other results behind:
DC50 (HiBiT-BRM) [nM],DC50 (HiBit-BRG1) [nM],Dmax (HiBit-BRG1) [%],SMILES,BRM HiBit Degradation Maximum (%) (HiBiT-BRM)
> 1000,> 1000,< 50,"Cc1ncsc1-c1ccc(CNC(=O)[C@@H]2C[C@@H](O)CN2C(=O)[C@@H](NC(=O)COCCNC(=O)c2ccc(CCOc3cc(-c4ccccc4O)nnc3N)cc2)C(C)(C)C)cc1 [Compound 163, (2S,4R)-1-((S)-2-(2-(2-(4-(2-((3-amino-6-(2-hydroxyphenyl)pyridazin-4-yl)oxy)ethyl)benzamido)ethoxy)acetamido)-3,3-dimethylbutanoyl)-4-hydroxy-N-(4-(4-methylthiazol-5-yl)benzyl)pyrrolidine-2-carboxamide]",B (“B” indicates maximum degradation ≥50%)
> 1000,> 1000,< 50,"Cc1ncsc1-c1ccc(CNC(=O)[C@@H]2C[C@@H](O)CN2C(=O)[C@@H](NC(=O)COCCOCC(=O)NCc2ccc(CCOc3cc(-c4ccccc4O)nnc3N)cc2)C(C)(C)C)cc1 [Compound 164, (2S,4R)-1-((S)-1-(4-(2-((3-amino-6-(2-hydroxyphenyl)pyridazin-4-yl)oxy)ethyl)phenyl)-12-(tert-butyl)-3,10-dioxo-5,8-dioxa-2,11-diazatridecan-13-oyl)-4-hydroxy-N-(4-(4-methylthiazol-5-yl)benzyl)pyrrolidine-2-carboxamide]",B (“B” indicates maximum degradation ≥50%)
> 1000,> 1000,< 50,"Cc1ncsc1-c1ccc(CNC(=O)[C@@H]2C[C@@H](O)CN2C(=O)[C@@H](NC(=O)COCC(=O)NCc2ccc(CCOc3cc(-c4ccccc4O)nnc3N)cc2)C(C)(C)C)cc1 [Compound 165, (2S,4R)-1-((S)-2-(2-(2-((4-(2-((3-amino-6-(2-hydroxyphenyl)pyridazin-4-yl)oxy)ethyl)benzyl)amino)-2-oxoethoxy)acetamido)-3,3-dimethylbutanoyl)-4-hydroxy-N-(4-(4-methylthiazol-5-yl)benzyl)pyrrolidine-2-carboxamide]",A (“A” indicates maximum degradation ≥75%)
> 1000,> 1000,< 50,"Cc1ncsc1-c1ccc(CNC(=O)[C@@H]2C[C@@H](O)CN2C(=O)[C@@H](NC(=O)COCCOCCOCCOCCOCCNC(=O)c2ccc(CCOc3cc(-c4ccccc4O)nnc3N)cc2)C(C)(C)C)cc1 [Compound 167, (2S,4R)-1-((S)-1-(4-(2-((3-amino-6-(2-hydroxyphenyl)pyridazin-4-yl)oxy)ethyl)phenyl)-21-(tert-butyl)-1,19-dioxo-5,8,11,14,17-pentaoxa-2,20-diazadocosan-22-oyl)-4-hydroxy-N-(4-(4-methylthiazol-5-yl)benzyl)pyrrolidine-2-carboxamide]",B (“B” indicates maximum degradation ≥50%)
> 1000,> 1000,< 50,"Cc1ncsc1-c1ccc(CNC(=O)[C@@H]2C[C@@H](O)CN2C(=O)[C@@H](NC(=O)COCCOCCOCCOCCOCC(=O)NCc2ccc(CCOc3cc(-c4ccccc4O)nnc3N)cc2)C(C)(C)C)cc1 [Compound 168, N1-(4-(2-((3-amino-6-(2-hydroxyphenyl)pyridazin-4-yl)oxy)ethyl)benzyl)-N17-((S)-1-((2S,4R)-4-hydroxy-2-((4-(4-methylthiazol-5-yl)benzyl)carbamoyl)pyrrolidin-1-yl)-3,3-dimethyl-1-oxobutan-2-yl)-3,6,9,12,15-pentaoxaheptadecanedia]",C (“C” indicates maximum degradation <50%)

# Reference: patent US20230150974A1 (Foghorn Therapeutics Inc., priority 2020, published 2023)
